Test results published in patent US9962369B2, “Methods and compositions for transdermal delivery” (SPRAYABLE HOLDINGS, INC., priority 2014, dated 2018).

Experiment: Transdermal delivery of melatonin: plasma level of melatonin after applying composition to skin of a subject
Details: for concentration at 0 h / concentration at 1 h / concentration at 2 h / concentration at 0 hr / concentration at 1 hr / concentration at 2 hr / concentration at 4 hr / concentration at 8 hr / concentration at 4 h / concentration at 8 h: human, plasma, topical, 3 mg

- Plasma level of melatonin (2-(Dimethylamino)ethyl 2-(4-isobutylphenyl)propionate hydrochloride 222.60 mM, 0.60 mL applied to skin, 1 hr after transdermal administration): 1.5 ng/mL
- Plasma level of melatonin (2-(Dimethylamino)ethyl 2-(4-isobutylphenyl)propionate hydrochloride 222.60 mM, 0.60 mL applied to skin, 2 hr after transdermal administration): 1.7 ng/mL
- Plasma level of melatonin (2-(Dimethylamino)ethyl 2-(4-isobutylphenyl)propionate hydrochloride 222.60 mM, 0.60 mL applied to skin, 4 hr after transdermal administration): 1.6 ng/mL
- Plasma level of melatonin (2-(Dimethylamino)ethyl 2-(4-isobutylphenyl)propionate hydrochloride 222.60 mM, 0.60 mL applied to skin, 8 hr after transdermal administration): 1.5 ng/mL
- Plasma level of melatonin (4-(Diethylamino)butyl 2-(4-isobutylphenyl)propionate hydrochloride 189.21 mM, 0.60 mL applied to skin, 0 hr after transdermal administration): 0 ng/mL
- Plasma level of melatonin (4-(Diethylamino)butyl 2-(4-isobutylphenyl)propionate hydrochloride 189.21 mM, 0.60 mL applied to skin, 1 hr after transdermal administration): 1.4 ng/mL
- Plasma level of melatonin (4-(Diethylamino)butyl 2-(4-isobutylphenyl)propionate hydrochloride 189.21 mM, 0.60 mL applied to skin, 2 hr after transdermal administration): 1.5 ng/mL
- Plasma level of melatonin (4-(Diethylamino)butyl 2-(4-isobutylphenyl)propionate hydrochloride 189.21 mM, 0.60 mL applied to skin, 4 hr after transdermal administration): 1.5 ng/mL
- Plasma level of melatonin (4-(Diethylamino)butyl 2-(4-isobutylphenyl)propionate hydrochloride 189.21 mM, 0.60 mL applied to skin, 8 hr after transdermal administration): 1.3 ng/mL
- Plasma level of melatonin (5-(Diethylamino)pentyl 2-(4-isobutylphenyl)propionate hydrochloride 182.28 mM, 0.60 mL applied to skin, 1 hr after transdermal administration): 1.6 ng/mL
- Plasma level of melatonin (5-(Diethylamino)pentyl 2-(4-isobutylphenyl)propionate hydrochloride 182.28 mM, 0.60 mL applied to skin, 2 hr after transdermal administration): 1.9 ng/mL
- Plasma level of melatonin (5-(Diethylamino)pentyl 2-(4-isobutylphenyl)propionate hydrochloride 182.28 mM, 0.60 mL applied to skin, 4 hr after transdermal administration): 1.9 ng/mL
- Plasma level of melatonin (5-(Diethylamino)pentyl 2-(4-isobutylphenyl)propionate hydrochloride 182.28 mM, 0.60 mL applied to skin, 8 hr after transdermal administration): 1.7 ng/mL
- Plasma level of melatonin (Helper esters: None (0 mM), 2.0 mL applied to skin, 0 hr after transdermal administration): 0.0 ng/mL
- concentration at 0 h: 0 ng/mL
- concentration at 0 h (Plasma level of melatonin, Helper esters: None (0 mM), 2.0 mL applied to skin, 0 hr after transdermal administration): 0 ng/mL
- concentration at 1 h (Plasma level of melatonin, Helper esters: None (0 mM), 2.0 mL applied to skin, 1 hr after transdermal administration): 0.1 ng/mL
- concentration at 2 h (Plasma level of melatonin, Helper esters: None (0 mM), 2.0 mL applied to skin, 2 hr after transdermal administration): 0.1 ng/mL
- concentration at 0 hr (Plasma level of melatonin, Isoleucine hexyl ester 278.04 mM, 0.60 mL applied to skin, 0 hr after transdermal administration): 0 ng/mL
- concentration at 1 hr (Plasma level of melatonin, Isoleucine hexyl ester 278.04 mM, 0.60 mL applied to skin, 1 hr after transdermal administration): 1.2 ng/mL
- concentration at 2 hr (Plasma level of melatonin, Isoleucine hexyl ester 278.04 mM, 0.60 mL applied to skin, 2 hr after transdermal administration): 1.3 ng/mL
- concentration at 4 hr (Plasma level of melatonin, Isoleucine hexyl ester 278.04 mM, 0.60 mL applied to skin, 4 hr after transdermal administration): 1.4 ng/mL
- concentration at 8 hr (Plasma level of melatonin, Isoleucine hexyl ester 278.04 mM, 0.60 mL applied to skin, 8 hr after transdermal administration): 1.3 ng/mL
- concentration at 0 hr (Plasma level of melatonin, Isoleucine isopropyl ester 333.76 mM, 0.60 mL applied to skin, 0 hr after transdermal administration): 0 ng/mL
- concentration at 1 hr (Plasma level of melatonin, Isoleucine isopropyl ester 333.76 mM, 0.60 mL applied to skin, 1 hr after transdermal administration): 1.7 ng/mL
- concentration at 2 hr (Plasma level of melatonin, Isoleucine isopropyl ester 333.76 mM, 0.60 mL applied to skin, 2 hr after transdermal administration): 1.8 ng/mL
- concentration at 4 hr (Plasma level of melatonin, Isoleucine isopropyl ester 333.76 mM, 0.60 mL applied to skin, 4 hr after transdermal administration): 1.9 ng/mL
- concentration at 8 hr (Plasma level of melatonin, Isoleucine isopropyl ester 333.76 mM, 0.60 mL applied to skin, 8 hr after transdermal administration): 1.8 ng/mL
- concentration at 0 h (Plasma level of melatonin, Leucine hexyl ester hydrochloride 278.04 mM, 0.60 mL applied to skin, 0 hr after transdermal administration): 0 ng/mL
- concentration at 1 h (Plasma level of melatonin, Leucine hexyl ester hydrochloride 278.04 mM, 0.60 mL applied to skin, 1 hr after transdermal administration): 1.4 ng/mL
- concentration at 2 h (Plasma level of melatonin, Leucine hexyl ester hydrochloride 278.04 mM, 0.60 mL applied to skin, 2 hr after transdermal administration): 1.5 ng/mL
- concentration at 4 hr (Plasma level of melatonin, Leucine hexyl ester hydrochloride 278.04 mM, 0.60 mL applied to skin, 4 hr after transdermal administration): 1.5 ng/mL
- concentration at 8 hr (Plasma level of melatonin, Leucine hexyl ester hydrochloride 278.04 mM, 0.60 mL applied to skin, 8 hr after transdermal administration): 1.3 ng/mL
- concentration at 0 h (Plasma level of melatonin, Leucine isopropyl ester hydrochloride 333.76 mM, 0.60 mL applied to skin, 0 hr after transdermal administration): 0 ng/mL
- concentration at 1 h (Plasma level of melatonin, Leucine isopropyl ester hydrochloride 333.76 mM, 0.60 mL applied to skin, 1 hr after transdermal administration): 1.7 ng/mL
- concentration at 2 h (Plasma level of melatonin, Leucine isopropyl ester hydrochloride 333.76 mM, 0.60 mL applied to skin, 2 hr after transdermal administration): 1.8 ng/mL
- concentration at 4 h (Plasma level of melatonin, Leucine isopropyl ester hydrochloride 333.76 mM, 0.60 mL applied to skin, 4 hr after transdermal administration): 1.9 ng/mL
- concentration at 8 h (Plasma level of melatonin, Leucine isopropyl ester hydrochloride 333.76 mM, 0.60 mL applied to skin, 8 hr after transdermal administration): 1.8 ng/mL
- concentration at 0 hr (Plasma level of melatonin, Phenylalanine isopropyl ester hydrochloride 287.21 mM, 0.60 mL applied to skin, 0 hr after transdermal administration): 0 ng/mL
- concentration at 1 hr (Plasma level of melatonin, Phenylalanine isopropyl ester hydrochloride 287.21 mM, 0.60 mL applied to skin, 1 hr after transdermal administration): 1.6 ng/mL
- concentration at 2 hr (Plasma level of melatonin, Phenylalanine isopropyl ester hydrochloride 287.21 mM, 0.60 mL applied to skin, 2 hr after transdermal administration): 1.7 ng/mL
- concentration at 4 hr (Plasma level of melatonin, Phenylalanine isopropyl ester hydrochloride 287.21 mM, 0.60 mL applied to skin, 4 hr after transdermal administration): 1.6 ng/mL
- concentration at 8 hr (Plasma level of melatonin, Phenylalanine isopropyl ester hydrochloride 287.21 mM, 0.60 mL applied to skin, 8 hr after transdermal administration): 1.7 ng/mL
- concentration at 0 h (Plasma level of melatonin, Phenylalanine octyl ester hydrochloride 223.02 mM, 0.60 mL applied to skin, 0 hr after transdermal administration): 0 ng/mL
- concentration at 1 h (Plasma level of melatonin, Phenylalanine octyl ester hydrochloride 223.02 mM, 0.60 mL applied to skin, 1 hr after transdermal administration): 1.3 ng/mL
- concentration at 2 h (Plasma level of melatonin, Phenylalanine octyl ester hydrochloride 223.02 mM, 0.60 mL applied to skin, 2 hr after transdermal administration): 1.4 ng/mL
- concentration at 4 h (Plasma level of melatonin, Phenylalanine octyl ester hydrochloride 223.02 mM, 0.60 mL applied to skin, 4 hr after transdermal administration): 1.3 ng/mL
- concentration at 8 h (Plasma level of melatonin, Phenylalanine octyl ester hydrochloride 223.02 mM, 0.60 mL applied to skin, 8 hr after transdermal administration): 1.2 ng/mL
- concentration at 0 hr (Plasma level of melatonin, Table 20 control, A− N/A, helper esters 0 mM, 2.0 mL applied, 0 hr after transdermal administration): 0 ng/mL
- concentration at 1 hr (Plasma level of melatonin, Table 20 control, A− N/A, helper esters 0 mM, 2.0 mL applied, 1 hr after transdermal administration): 0.1 ng/mL
- concentration at 2 h (Plasma level of melatonin, Table 20 control, A− N/A, helper esters 0 mM, 2.0 mL applied, 2 hr after transdermal administration): 0.1 ng/mL
SMILES: COc1ccc2[nH]cc(CCNC(C)=O)c2c1 [Melatonin]
